{
  "source": "patent US20120214818A1",
  "about": "“METHODS OF TREATING DIASTOLIC DYSFUNCTION AND RELATED CONDITIONS” (THE BOARD OF TRUSTEES OF THE UNIVERSITY OF ILLINOIS, priority 2009, published 2012)",
  "system": "late INa in isolated murine ventricular myocytes",
  "assay": "Voltage-clamp determination of sodium current (late INa)",
  "type": "cell-based, mouse",
  "set-up": "late INa (integrated from 5% of peak current to 40 ms after depolarization): unit not given here",
  "details": "10 μmol/L ranolazine extracellular; for late INa (integrated from 5% of peak current to 40 ms after depolarization): 15 min",
  "experimental": "Electrophysiological determination of sodium current: Voltage-clamp experiments were performed on isolated murine ventricular myocytes with an Axopatch 200B amplifier (Molecular Devices, Sunnyvale, Calif.) in whole cell configuration. Data acquisition was performed at a sampling rate of 20 kHz and filtered at 10 kHz. Data recording and analysis were done with the pClamp8 software suite (Molecular Devices) and OriginPro 8 (Originlab, Northampton, Mass.). All experiments were carried out at room temperature. Myocytes were plated on glass cover slips and were perfused with a low-sodium Tyrode solution containing the following (in mM): N-methyl-D-glucamine 100 (titrated to pH 7.4 with HCl), NaCl 15, tetramethylammonium chloride 20, CsC15, MgCl2 1, glucose 10, 4-aminopyridine 3, MnCl2 2, HEPES10, and CaCl2 1 (final pH 7.4, CsOH). Patch electrodes were pulled from capillaries purchased from Harvard Apparatus (Holliston, Mass.) using a model P-97 puller from Sutter Instruments (Novato, Calif.). Electrodes were filled with an electrode solution containing (in mM): CsCl 20, tetraethylammonium chloride 20, glutamic acid 80, NaCl 10, MgCl2 1, MgATP 5, Li2GTP 0.3, HEPES10, EGTA 10, CaCl2 0.13 (corresponding to [Ca^2+]free of <10 nM).^23 Electrode solution pH was adjusted to 7.2 with CsOH. Electrodes used for these experiments had access resistances between 1.0 and 1.5 MΩ.\nRanolazine was provided as a crystalline solid by Gilead Sciences. Prior to experiments, a DMSO stock solution was prepared and diluted (minimum 100:1) directly into the Tyrode solution used for perfusion. Cells that were treated with ranolazine were exposed to the drug for 15 min prior to beginning voltage-clamp experiments.\nVoltage clamping studies: Voltage-clamp experiments were performed on isolated murine ventricular myocytes with an Axopatch 200B amplifier (Molecular Devices, Sunnyvale, Calif.) in whole cell configuration. Data acquisition was performed at a sampling rate of 20 kHz and filtered at 10 kHz. […]",
  "note": "“And” between values parts separate entries of the source, which are not always exact repeats. Equal values may be shown once.",
  "data": [
    {"smiles": "COc1ccccc1OCC(O)CN1CCN(CC(=O)Nc2c(C)cccc2C)CC1", "note": "(stereo not drawn) [ranolazine]", "values": [
      {"measurement": "late accumulated charge", "setting": "DOCA-salt cardiomyocytes", "value": "did not affect the late accumulated charge"},
      {"measurement": "late INa (integrated from 5% of peak current to 40 ms after depolarization)", "setting": "DOCA-salt myocytes", "value": "0.1142±0.01272 and 0.114±0.013"},
      {"measurement": "late INa (integrated from 5% of peak current to 40 ms after depolarization)", "setting": "sham myocytes", "value": "0.1126±0.00406 and 0.113±0.004"}
    ]}
  ]
}
